We go through 5 compounds from US20250120967A1, “TYROSINE KINASES INHIBITORS AND USES THEREOF” (GREAT NOVEL THERAPEUTICS BIOTECH & MEDICALS CORPORATION, priority 2023, published 2025).

Holding throughout (test): Tyrosine kinase inhibition assay
Holding throughout (assay type): biochemical
Common to all, as to settings: single concentration 1.0 μM, read-out: percent inhibition

One assay addresses T1, JAK3 (Homo sapiens, UniProt P52333).
T1 sequence (P52333 1-1124): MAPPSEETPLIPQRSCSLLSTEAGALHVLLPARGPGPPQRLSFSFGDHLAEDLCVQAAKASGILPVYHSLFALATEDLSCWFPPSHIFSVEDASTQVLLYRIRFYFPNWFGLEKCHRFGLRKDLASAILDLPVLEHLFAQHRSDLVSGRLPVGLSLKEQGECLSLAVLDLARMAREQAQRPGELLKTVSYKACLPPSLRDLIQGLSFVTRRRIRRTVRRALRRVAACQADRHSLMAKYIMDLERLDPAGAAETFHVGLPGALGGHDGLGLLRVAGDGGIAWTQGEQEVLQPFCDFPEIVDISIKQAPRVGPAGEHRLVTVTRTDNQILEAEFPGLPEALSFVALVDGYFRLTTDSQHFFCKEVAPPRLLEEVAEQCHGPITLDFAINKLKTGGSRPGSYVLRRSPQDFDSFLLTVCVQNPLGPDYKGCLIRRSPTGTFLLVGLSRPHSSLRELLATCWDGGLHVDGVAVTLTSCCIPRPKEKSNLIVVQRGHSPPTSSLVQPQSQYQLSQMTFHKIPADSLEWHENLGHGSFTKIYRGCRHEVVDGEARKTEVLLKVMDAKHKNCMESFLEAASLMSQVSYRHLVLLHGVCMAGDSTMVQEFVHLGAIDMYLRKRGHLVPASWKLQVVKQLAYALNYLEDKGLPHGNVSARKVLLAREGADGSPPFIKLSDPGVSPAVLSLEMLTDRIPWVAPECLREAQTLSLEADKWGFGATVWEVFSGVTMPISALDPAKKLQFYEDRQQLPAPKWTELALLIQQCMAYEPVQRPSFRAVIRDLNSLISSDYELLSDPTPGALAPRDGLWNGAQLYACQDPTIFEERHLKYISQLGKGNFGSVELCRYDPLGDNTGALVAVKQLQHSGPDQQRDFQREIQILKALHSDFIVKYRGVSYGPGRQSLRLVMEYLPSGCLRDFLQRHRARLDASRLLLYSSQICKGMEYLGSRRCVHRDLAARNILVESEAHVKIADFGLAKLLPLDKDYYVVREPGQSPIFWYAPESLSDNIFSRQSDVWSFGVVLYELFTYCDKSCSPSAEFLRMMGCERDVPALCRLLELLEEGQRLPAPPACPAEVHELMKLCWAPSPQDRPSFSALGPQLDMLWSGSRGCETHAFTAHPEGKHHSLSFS
Summed up:
(§1)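 Values are percent inhibition at 1.0 μM compound, with inhibition above 80% defined as a hit. Peptide substrate phosphorylation was assessed by Z′-LYTE at apparent-Km ATP in HEPES pH 7.5 buffer containing MgCl2, EGTA and BRIJ-35.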

In another assay the target is T2, EPHB3 (Homo sapiens, UniProt P54753).
T2 sequence (P54753 34-998): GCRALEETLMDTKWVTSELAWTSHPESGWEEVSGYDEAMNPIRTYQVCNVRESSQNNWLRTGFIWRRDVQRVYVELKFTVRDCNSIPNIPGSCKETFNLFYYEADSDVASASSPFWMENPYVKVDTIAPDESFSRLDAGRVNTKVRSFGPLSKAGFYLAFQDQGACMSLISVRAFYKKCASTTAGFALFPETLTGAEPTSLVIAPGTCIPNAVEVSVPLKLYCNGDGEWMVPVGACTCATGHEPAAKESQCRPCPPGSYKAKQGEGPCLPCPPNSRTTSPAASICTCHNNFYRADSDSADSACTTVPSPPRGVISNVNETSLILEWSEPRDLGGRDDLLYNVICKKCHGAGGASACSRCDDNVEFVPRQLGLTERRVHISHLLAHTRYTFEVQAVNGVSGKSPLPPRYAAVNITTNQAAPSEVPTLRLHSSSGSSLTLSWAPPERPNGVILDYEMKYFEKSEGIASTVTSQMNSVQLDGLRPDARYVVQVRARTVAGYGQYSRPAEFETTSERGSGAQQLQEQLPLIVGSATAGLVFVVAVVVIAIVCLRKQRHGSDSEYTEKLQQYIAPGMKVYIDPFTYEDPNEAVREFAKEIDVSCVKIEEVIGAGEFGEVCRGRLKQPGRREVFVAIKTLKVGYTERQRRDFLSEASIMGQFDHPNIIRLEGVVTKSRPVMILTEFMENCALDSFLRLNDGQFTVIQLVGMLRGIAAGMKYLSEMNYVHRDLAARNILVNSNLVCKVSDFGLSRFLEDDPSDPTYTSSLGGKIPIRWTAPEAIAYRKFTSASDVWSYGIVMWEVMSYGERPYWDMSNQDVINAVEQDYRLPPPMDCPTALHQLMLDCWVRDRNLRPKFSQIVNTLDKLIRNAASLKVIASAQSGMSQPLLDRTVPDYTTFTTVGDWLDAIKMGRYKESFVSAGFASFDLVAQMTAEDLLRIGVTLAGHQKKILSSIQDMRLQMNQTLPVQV
In outline: as §1

Another assay addresses MAPK10 (JNK3) (Homo sapiens, UniProt P53779). Summed up: as §1
Another assay has as its target FGFR1 (Homo sapiens, UniProt P11362). Summed up: as §1
Another assay concerns the target PTK6 (Brk) (Homo sapiens, UniProt Q13882). In outline: as §1

A word on the inhibition: it is the change of the read-out against control, counted positive when it falls.

MAPK10 (JNK3), sequence (P53779 whole entry): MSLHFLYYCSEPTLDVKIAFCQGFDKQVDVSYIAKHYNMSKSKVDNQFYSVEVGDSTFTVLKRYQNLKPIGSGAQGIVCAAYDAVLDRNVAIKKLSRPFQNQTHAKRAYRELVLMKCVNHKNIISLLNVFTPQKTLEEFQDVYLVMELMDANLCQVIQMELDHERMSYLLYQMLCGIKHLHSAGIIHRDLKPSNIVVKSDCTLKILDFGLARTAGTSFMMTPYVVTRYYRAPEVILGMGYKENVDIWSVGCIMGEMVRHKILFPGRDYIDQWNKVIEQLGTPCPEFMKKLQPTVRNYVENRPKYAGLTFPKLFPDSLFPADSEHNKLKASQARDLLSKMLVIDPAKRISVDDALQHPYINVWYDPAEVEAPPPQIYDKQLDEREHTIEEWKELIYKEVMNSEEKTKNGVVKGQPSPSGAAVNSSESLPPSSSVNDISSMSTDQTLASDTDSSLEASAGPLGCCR
FGFR1, sequence (P11362 22-822): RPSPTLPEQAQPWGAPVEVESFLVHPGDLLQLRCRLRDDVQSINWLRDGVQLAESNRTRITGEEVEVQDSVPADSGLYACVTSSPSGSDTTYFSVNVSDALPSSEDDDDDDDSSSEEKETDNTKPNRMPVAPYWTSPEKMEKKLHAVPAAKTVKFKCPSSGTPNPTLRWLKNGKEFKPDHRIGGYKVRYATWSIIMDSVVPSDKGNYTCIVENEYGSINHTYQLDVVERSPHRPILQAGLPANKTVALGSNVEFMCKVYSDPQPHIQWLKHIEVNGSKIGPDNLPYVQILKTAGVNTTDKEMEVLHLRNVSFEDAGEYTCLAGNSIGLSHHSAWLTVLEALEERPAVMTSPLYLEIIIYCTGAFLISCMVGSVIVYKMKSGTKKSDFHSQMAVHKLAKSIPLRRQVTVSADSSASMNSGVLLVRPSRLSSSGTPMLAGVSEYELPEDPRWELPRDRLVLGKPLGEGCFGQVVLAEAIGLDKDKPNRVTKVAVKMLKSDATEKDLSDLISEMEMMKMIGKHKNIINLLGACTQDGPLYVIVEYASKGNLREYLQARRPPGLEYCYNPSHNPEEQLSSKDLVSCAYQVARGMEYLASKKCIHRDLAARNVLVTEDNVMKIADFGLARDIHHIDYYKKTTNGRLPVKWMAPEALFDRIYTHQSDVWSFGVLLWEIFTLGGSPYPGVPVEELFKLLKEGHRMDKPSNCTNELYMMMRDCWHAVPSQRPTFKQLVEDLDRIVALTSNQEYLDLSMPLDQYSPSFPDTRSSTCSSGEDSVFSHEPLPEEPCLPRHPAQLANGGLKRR
PTK6 (Brk), sequence (Q13882 whole entry): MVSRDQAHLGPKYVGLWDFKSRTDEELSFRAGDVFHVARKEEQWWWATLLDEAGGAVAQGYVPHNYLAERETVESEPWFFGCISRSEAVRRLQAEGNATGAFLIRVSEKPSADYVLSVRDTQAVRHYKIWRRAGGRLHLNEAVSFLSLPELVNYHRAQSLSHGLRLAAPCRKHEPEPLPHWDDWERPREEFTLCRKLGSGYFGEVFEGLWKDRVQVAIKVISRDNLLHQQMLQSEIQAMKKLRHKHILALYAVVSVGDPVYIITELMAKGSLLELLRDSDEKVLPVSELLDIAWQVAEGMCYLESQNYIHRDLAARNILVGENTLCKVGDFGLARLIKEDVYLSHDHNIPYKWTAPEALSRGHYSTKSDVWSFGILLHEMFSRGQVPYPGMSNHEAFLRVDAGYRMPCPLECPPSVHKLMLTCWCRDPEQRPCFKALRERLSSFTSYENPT

With `COc1cc2nccc(Oc3ccc(NC(=O)C4(C(=O)Nc5ccc(F)cc5)CC4)cc3)c2cc1OC` [Cabozantinib, reference compound], the inhibition at 1 µM worked out at 9% on JAK3; 54% on EPHB3; 3% on MAPK10 (JNK3); 12% at FGFR1; 103% on PTK6 (Brk).
Taken in the same sequence, the figures for `COc1cc2nccc(Oc3ccc(NC(=O)C4(C(=O)Nc5ccc(F)cc5)CC4)cc3F)c2cc1Oc1ccc(N)cc1F` [Cbo-23] were 17%, 55%, -3%, 27% and 97%.
`COc1cc2nccc(Oc3ccc(NC(=O)C4(NC(=O)c5ccc(F)cc5)CC4)cc3F)c2cc1Oc1ccc(N)cc1F` [Cbo-10]: the inhibition at 1 µM was 9% at JAK3; 6% at EPHB3; 8% on MAPK10 (JNK3); 1% on FGFR1; 91% on PTK6 (Brk).
Turning to `COc1cc2nccc(Oc3ccc(NC(=O)C4(NC(=O)c5ccc(F)cc5)CC4)cc3F)c2cc1OC` [Cbo-02, N-(1-((4-((6,7-diMethoxyquinolin-4-yl)oxy)-3-fluorophenyl)carbamoyl)cyclopropyl)-4-fluorobenzamide], the inhibition at 1 µM on JAK3 was found to be 11%; at EPHB3, 4%; on MAPK10 (JNK3), 4%; at FGFR1, 3%; on PTK6 (Brk) it was 73%.
With `COc1cc2nccc(Oc3ccc(NC(=O)C4(NC(=O)c5ccc(F)cc5)CC4)cc3F)c2cc1Oc1c(F)cc(N)cc1F` [Cbo-14], the inhibition at 1 µM amounted to 21% on JAK3; 6% at EPHB3; 4% on MAPK10 (JNK3); 5% at FGFR1; 94% at PTK6 (Brk).
